In publication PMC12567141, “Design, Synthesis and Biological Evaluation of Pyrazolopyrimidine Derivatives as Aryl Hydrocarbon Receptor Antagonists for Colorectal Cancer Immunotherapy” (Pharmaceutics, 2025):

Legend:
AhR = AhR antagonist screening using Tg(cyp1a:egfp) zebrafish; type: in vivo; design: key to AhR Antagonist Activity at 100 nM: - no inhibition; + weak; ++ mild; +++ moderate; ++++ high; +++++ very high
Description: At 30 hpf, Tg(cyp1a:egfp) embryos were placed in a 2-mL screw-capped glass vial with five embryos per vial. Each vial contained 1 mL of E3 media (5 mM NaCl, 0.17 mM KCl, 0.33 mM CaCl2·2H2O and 0.4 mM MgCl2·6H2O, pH 7.2) and supplemented with 2 nM TCDD (1746-01-6; AccuStandard Inc., New Haven, NH, USA) dissolved in DMSO. The compounds were subsequently diluted and individually introduced into the vials, achieving a final concentration of 0.1% DMSO. The embryos were then incubated for 48 h and then embryonic EGFP expression was evaluated using a fluorescent stereomicroscope (SteREO Discovery V8; Zeiss, Oberkochen, BW, Germany). As a positive control, StemRegenin1 (72342, […] Technologies, Vancouver, BC, Canada) was employed.
To evaluate AhR antagonistic activity, we conducted an AhR antagonist assay using transgenic zebrafish. Zebrafish have garnered significant attention as model organisms for drug discovery because they share metabolic pathways with mammals. […] Therefore, we synthesized more meta substituted phenyl derivatives. […] We also synthesized heteroaromatic derivatives including pyrimidine and pyridine at 5-position; however, their activities were decreased.

colorectal cancer cells = assay: Cell viability assay (CCK-8), colorectal cancer cells; type: cell-based; details: 24 h
Description: Chinese hamster ovary CHO cells, mouse fibroblast L929 cells, normal colon CCD18-Co cells, monkey kidney fibroblast COS-7 cells, colorectal cancer cells including HCT-116, RKO, SW480, SW620, CT26, and MC38 cells were purchased from ATCC (American Type Culture Collection). CHO, L929, Cos-7, and all cancer cells were maintained in RPMI 1640 or DMEM supplemented with 10% FBS (Gibco FBS; Thermo Fisher Scientific, Hanover Park, IL, USA) and 1% streptomycin/penicillin. CCD18-Co cells were cultured in high-glucose Dulbecco modified Eagle medium containing 10% FBS and 1% streptomycin/penicillin. All cells were grown in 5% CO2 at 37 °C. Mycoplasma testing was regularly performed every month using the BioMycoX Mycoplasma PCR Detection Kit (CellSafe, Yongin, Republic of Korea).
Cell viability was analyzed using a Cell Counting Kit-8 (Dojindo molecular technologies, Rockville, MD, USA). Cells were seeded in 96-well plates and treated with different concentrations of 7k. At the indicated time points, CCK-8 (10 μL/well) reagents were added to the cells, followed by further incubation at 37 °C for 90 min. The absorbance at 450 nm was measured using a plate reader (BioTek instruments, Winooski, VT, USA).

[1] = tested on: CD8+ IFNγ + T lymphocytes; assay: Flow cytometry of CD8+ IFNγ+ T lymphocytes in splenocytes of tumour-bearing mice; type: in vivo; details: vs vehicle or single therapy
Description: For analysis of CD8+ IFNγ + T lymphocytes, splenocytes were collected from tumour-bearing mice and stimulated with a cell activation cocktail (BioLegend, San Diego, CA, USA) in the presence of Brefeldin A for 6 h. Splenocytes were stained with APC-conjugated CD8 and APC-Cy7-conjugated IFNγ Ab at 4 °C for 30 min (BioLegend). After washing with FACS buffer (Biolegend) three times, the cells were analysed using Becton Dickinson LSRFortessa^TM and analyzed with FlowJo software. Isotype-matched monoclonal antibodies were used as controls. The data were analysed using Flowjo analysis software v11. (Flowjo LLC, Ashland, OR, USA).

MC38 tumor = assay: In vivo therapy, MC38 syngeneic model; design: species or system mice
Description: (§1) In vivo experiments were conducted using 6-week-old male immunocompetent BALB/c and C57BL/6 with 18–20 g body weight (Orient Bio Inc., Seungnam, Republic of Korea). All animal experimental procedures were maintained and used in accordance with the Guidelines for the Care and Use of Laboratory Animals of the Institute of Laboratory Animal Center, Daegu-Gyeongbuk Medical Innovation Foundation (K-MEDI hub). The animal studies were conducted after approval by the institutional reviewer board on the Ethics of Animal Experiments of the Daegu-Gyeongbuk Medical Innovation Foundation (approval number: KMEDI-24041103-01).
Study 1: Antitumor activity of 7k alone in mice with either CT26 syngeneic model or MC38 syngeneic model. Mice were subcutaneously challenged with 5 × 10^5 either MC38 or CT26 cells. […]
The 7k was dissolved in solution including 5% DMSO, 55% DW, and 40% PEG. Tumor size was measured with a caliper at the indicated time points, and tumor volume (mm^3) was calculated using the following formula, tumor volume (mm^3) = d2 × D/2, where d and D are the shortest and longest diameters in mm, respectively.

MC38 and CT26 cells = assay: Cell-cycle analysis by flow cytometry; type: cell-based; details: 24 h treatment
Description: Washed and fixed cells were stained in the dark with 0.5 mL propidium iodide/RNase staining buffer for 15 min at room temperature. DNA content, cell-cycle profiles, and forward scatter were analyzed using a Becton Dickinson LSRFortessa^TM (BD Diagnostics, San Jose, CA, USA) with emission detection at 488 nm (excitation) and 575 nm (peak emission). Data were analyzed using FlowJo (BD biosciences, San Jose, CA. USA).

[2] = Body weight during in vivo therapy; details: 7k-treated tumor-bearing mice during in vivo therapy
Description: as §1
Study 1: Antitumor activity of 7k alone in mice with either CT26 syngeneic model or MC38 syngeneic model. Mice were subcutaneously challenged with 5 × 10^5 either MC38 or CT26 cells. When tumor formation was detected via inspection and palpation, 7k treatment was initiated once a day for 14 days by oral gavage.
Study 2: Antitumor activity of combination with anti-PD1 and 7k in CT26 tumor bearing mice. Mice were subcutaneously challenged with 5 × 10^5 CT26 cells. Tumor bearing mice were divided into four groups as following; Group 1: vehicle, Group 2: 10 mg/kg anti-PD1, Group 3: 10 mg/kg 7k, and Group 4: 10 mg/kg anti-PD1 + 10 mg/kg 7k. 7k was administered by oral gavage once daily. […]

CC(C)n1cc2nc(-c3cc(F)cc(F)c3)nc(NCCc3c[nH]c4ccccc34)c2n1 [Compound 7k, N-(2-(1H-indol-3-yl)ethyl)-5-(3,5-difluorophenyl)-2-isopropyl-2H-pyrazolo [4,3-d]pyrimidin-7-amine]
AhR antagonistic activity in zebrafish, in words (AhR; Tg(cyp1a:egfp) zebrafish, EGFP readout): significant antagonistic activity against AhR | AhR Antagonist Activity at 100 nM (AhR; extent of GFP reduction in Tg(cyp1a:egfp) zebrafish compared to the TCDD (2 nM) control, 100 nM, 48 h): +++++ | cell proliferation / viability of colorectal cancer cells (colorectal cancer cells): dose-dependent decrease in cell proliferation | levels of CD8+ IFNγ T lymphocytes [1]: increased the levels of CD8+ IFNγ T lymphocytes | tumor growth inhibition (TGI) (MC38 tumor; MC38 model, combination study, 7k oral daily 20 days, anti-PD1 i.p. every three days four times): 45% | tumor growth inhibition (TGI) (MC38 tumor; MC38 model, comparison of 7k and 3′,4′-dimethoxyflavone, 10 mg/kg oral once a day, 18 days): 51% | tumor weight (MC38 tumor; MC38 tumor bearing mice, vs vehicle-treated mice (Figure S5)): significantly lower | tumor growth inhibition (TGI) (MC38 tumor; MC38 tumor-bearing mice, single agent, 10 mg/kg oral once a day for 14 days): 49% | sub-G1 fraction (MC38 and CT26 cells): dose-dependent increase in the sub-G1 fraction | body weight [2]: No abnormal reduction in body weight
